Assay results as given in US6309874A, “Selection marker” (priority 1998, dated 2001).

Experiments:
[1] = target: T1, Leu799Cys (L799C) rat Na+,K+-ATPase a1 subunit (Rattus norvegicus, UniProt P06685, L800C); assay: Na+,K+-ATPase-dependent ATP hydrolysis, mutated enzyme; format: biochemical
T1 construct: expressed in transfected cells; crude membrane fraction
Experimental: (§1) Cells were lysed by treatment with 1 mM Tris-HCl pH 7.5 on ice for 15 min and a crude membrane fraction was prepared as described (Horiuchi, A., Takeyasu, K., Mouradian, M., Jose, P and Felder, R (1993) Mol. Phamiacol. 43, 281-285). The membrane fraction was frozer, in aliquots and stored over-night at -70° C.

[2] = tested on: untransfected COS-7 cells; assay: Cell attachment on fibronectin, untransfected cells; format: cell-based, monkey; conditions: different concentrations of ouabain, 0 to 1.0 mM, FIG. 2
Experimental: (§2) Cell attachment on fibronectin coted substrates was assayed in microtiterwells (Costar). All wells were preincubated over night at 4° C. with 5 microg/ml concentration of fibronectin. Before adding cells, each well was preincubated with 1% BSA for 30 min in 37° C. and later washed with serum free DMEM. Untransfected COS-7 cells and COS-7 cells expressing wild type or L799C Na+,K+-ATPase were grown in a 3 microCi/ml H3-thymidine containing medium supplemented with 10% fetal calf serum and harvested after approximately 72 hours at 60-80% confluence. Approximately 25,000 cells /wells were seeded in serum free DMEM. Cells were first incubated 15 min with different concentrations of oubain and then allowed to attach to fibronectin (5 μg/ml) coated substrates during 30 min of incubation in 37° C. and later washed with serum free DMEM. Radioactivity was measured in a Wallac Scintillation counter. Results are presented as % remaining radioactivity compared to untreated.

[3] = tested on: ouabain-sensitive (endogenous) Na+,K+-ATPase; assay: Pilot studies, ouabain-sensitive enzyme population; format: biochemical
Experimental: as §1

[4] = tested on: cells transfected with wild type rat Na+,K+-ATPase a1; assay: Cell survival in ouabain medium, wild type transfected cells; conditions: 500 μM ouabain
Na+,K+-ATPase = assay: Pilot studies, total Na+,K+-ATPase of transfected cells; format: biochemical; conditions: 10^-5 M ouabain, 10 µM
Experimental: as §1

[5] = tested on: cells with mutated murine and human NKA alpha 1-subunit; conditions: read-out: IC50 for ouabain; cells with a mutation in murine and human NKA alpha 1-subunit, Cantley et al 1994; cited from earlier work
[6] = tested on: COS-7 cells expressing wild type Na+,K+-ATPase; assay: Cell attachment on fibronectin, wild type transfected cells; format: cell-based, monkey; conditions: different concentrations of ouabain, 0 to 1.0 mM, FIG. 2
Experimental: as §2

[7] = tested on: LLC-PK1 cells transfected with mutated (L799C and/or L801C) rat Na+,K+-ATPase alpha1 subunit; assay: Survival study, transfected LLC-PK1 cells
[8] = target: T2, wild type rat Na+,K+-ATPase a1 subunit (Rattus norvegicus, UniProt P06685); assay: Na+,K+-ATPase-dependent ATP hydrolysis, natural enzyme; format: biochemical
T2 construct: expressed in transfected cells; crude membrane fraction
Experimental: as §1

[9] = tested on: cells transfected with mutant rat Na+,K+-ATPase a1; assay: Cell survival in ouabain medium, mutant transfected cells
[10] = tested on: COS-7 cells expressing L799C Na+,K+-ATPase; assay: Cell attachment on fibronectin, L799C transfected cells; format: cell-based, monkey; conditions: different concentrations of ouabain, 0 to 1.0 mM, FIG. 2
Experimental: as §2

C[C@@H]1O[C@@H](O[C@H]2C[C@@H](O)[C@]3(CO)[C@H]4[C@H](O)C[C@]5(C)[C@@H](C6=CC(=O)OC6)CC[C@]5(O)[C@@H]4CC[C@]3(O)C2)[C@H](O)[C@H](O)[C@H]1O [ouabain]
inhibition of the enzyme ([1]; ouabain concentrations up to 2 mM): no significant inhibition | activity at 2000 µM ([1]; read-out: (Na,K)-ATPase activity in percent in comparison with not treated): ~100% | cell attachment to fibronectin coated substrates [2]: loss of attachment | cell attachment to fibronectin coated substrates ([2]; listed as oubain): decreased dose dependent | ouabain concentration that completely inhibited the enzyme population [3]: 10^-5 M | cell survival [4]: died and died within a few days | share of Na+,K+-ATPase resistant to ouabain (Na+,K+-ATPase): Approximately 60% | IC50 [5]: ~5 mM | cell attachment to fibronectin coated substrates [6]: loss of attachment | growing and morphological characteristics of the cells ([7]; as high as 500×10^-6 M ouabain): did not seem to alter | cell survival, multiplication and exterior ([7]; ouabain concentrations up to 500 μM): survive, multiply and keep their natural exterior | inhibition at 2000 µM [8]: 85 to 90% | IC100 ([8]; read-out: ouabain concentration that completely inhibited the enzyme population, pilot studies, ouabain-insensitive (transfected) wild type enzyme): 5000 µM | ouabain concentration survived by the cells [9]: at least 1×10^-3 M | cell survival ([9]; longtime treatment with 500 μM ouabain): survived | cell attachment to fibronectin coated substrates [10]: no change in attachment
